In patent US12180226B2, “Spirotricycle RIPK1 inhibitors and methods of uses thereof” (Merck Sharp & Dohme LLC, priority 2021, dated 2024):
Counter-ions that a name gives are not always drawn.

Biological target: RIPK1 (recombinant GST-RIPK1 kinase domain, residues 1-327) (Homo sapiens (Human), UniProt Q13546)
Experiment: RIPK1-ADP-Glo Enzymatic Assay
Assay type: biochemical
Conditions: ADP-Glo; 25 nM GST-RIPK1, 300 μM ATP; assay lower limit ~25 nM; read-out: RIPK1 V0 Ec50
Procedure, shortened: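 Compounds titrated 10-pt 1:3 from 100000 nM top (1% DMSO); 30 min preinc w/ 25 nM Sf21-expressed enzyme, RT; start w/ ATP (300 μM final) + dephos-MBP (3 μM); 150 min; ADP-Glo lumi; 4-param fit → EC50.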

RIPK1 (recombinant GST-RIPK1 kinase domain, residues 1-327), sequence (Q13546 1-327): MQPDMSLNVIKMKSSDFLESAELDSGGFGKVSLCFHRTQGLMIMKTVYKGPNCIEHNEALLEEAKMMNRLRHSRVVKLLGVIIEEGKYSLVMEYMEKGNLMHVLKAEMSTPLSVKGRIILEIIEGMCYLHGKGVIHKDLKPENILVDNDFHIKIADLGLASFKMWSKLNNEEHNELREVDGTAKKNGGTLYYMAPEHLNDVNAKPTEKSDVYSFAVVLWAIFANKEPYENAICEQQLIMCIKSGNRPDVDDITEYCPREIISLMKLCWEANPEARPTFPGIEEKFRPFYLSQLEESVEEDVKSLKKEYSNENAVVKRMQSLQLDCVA

Compound	EC50
COC(=O)c1cnc(N2CCC3(CC2)O[C@@H]2CC[C@@H](c4ccccc4)N2C3=O)nc1 [Example 4.194, methyl 2-[(5′S,7a′R)-3′-oxo-5′-phenyltetrahydro-1H,3′H-spiro[piperidine-4,2′-pyrrolo[2,1-b] [1,3]oxazol]-1-yl]pyrimidine-5-carboxylate]	699 nM
COc1ccc2oc(N3CCC4(CC3)O[C@@H]3CC[C@@H](c5ccccc5)N3C4=O)nc2c1 [Example 4.160, (5′S,7a′R)-1-(5-methoxy-1,3-benzoxazol-2-yl)-5′-phenyltetrahydro-3′H-spiro[piperidine-4,2′-pyrrolo[2,1-b] [1,3]oxazol]-3′-one]	76.8 nM
Cc1cc(C#N)cnc1N1CCC2(CC1)O[C@@H]1CC[C@@H](c3cc(F)cc(F)c3)N1C2=O [Example 4.47, 6-[(5′S,7a′R)-5′-(3,5-difluorophenyl)-3′-oxotetrahydro-1H,3′H-spiro[piperidine-4,2′-pyrrolo[2,1-b] [1,3]oxazol]-1-yl]-5-methylpyridine-3-carbonitrile]	< 25 nM
CC1CN(C(=O)c2ccccc2)CCC12O[C@@H]1CC[C@@H](c3cc(F)cc(F)c3)N1C2=O (single isomer, unassigned) [Example 2.5, (3[S or R],4[R or S], 5′S,7a′R)-1-benzoyl-5′-(3,5-difluorophenyl)-3-methyltetrahydro-3′H-spiro[piperidine-4,2′-pyrrolo[2,1-b]oxazol]-3′-one]	40.7 nM
N#Cc1ccccc1C(=O)N1CCC2(CC1)O[C@@H]1CC[C@@H](c3cccc(F)c3)N1C2=O [Example 6.129, 2-[(5′S,7a′R)-5′-(3-fluorophenyl)-3′-oxotetrahydro-1H,3′H-spiro[piperidine-4,2′-pyrrolo[2,1-b][1,3]-oxazole]-1-carbonyl] benzonitrile]	188 nM
O=C1N2[C@@H](CC[C@H]2c2ccccc2F)OC12CN(c1ccnc(Cl)c1)C2 [Example 4.109, (5′S,7a′R)-1-(2-chloropyridin-4-yl)-5′-(2-fluorophenyl)tetrahydro-3′H-spiro[azetidine-3,2′-pyrrolo[2,1-b]oxazol]-3′-one]	37.8 nM
NC(=O)c1ccc(N2CCC3(CC2)O[C@@H]2CC[C@@H](c4ccccc4)N2C3=O)n2ncnc12 [Example 4.212, 5-[(5′S,7a′R)-3′-oxo-5′-phenyltetrahydro-1H,3′H-spiro[piperidine-4,2′-pyrrolo[2,1-b] [1,3]oxazol]-1-yl] [1,2,4]triazolo[1,5-a] pyridine-8-carboxamide]	< 25 nM
O=C(c1ccon1)N1CCC2(CC1)O[C@@H]1CC[C@@H](c3cc(F)cc(F)c3)N1C2=O [Example 5.45]	31 nM
O=C(c1cnc2cnccn12)N1CCC2(CC1)O[C@@H]1CC[C@@H](c3cc(F)cc(F)c3)N1C2=O [Example 5.67, (5′S,7a′R)-5′-(3,5-difluoro-phenyl)-1-(imidazo[1,2-a]pyrazine-3-carbonyl)-tetrahydro-3′H-spiro [piperidine-4,2′-pyrrolo-[2,1-b]oxazol]-3′-one]	135 nM
Cc1nc(N2CCC3(CC2)C[C@@H]2OC[C@@H](c4ccccc4)N2C3=O)ccc1C#N [Example 4.78, 2-methyl-6-[(3′R,7a′S)-5′-oxo-3′-phenyltetrahydro-1H,5′H-spiro[piperidine-4,6′-pyrrolo[2,1-b] [1,3]oxazol]-1-yl]pyridine-3-carbonitrile]	58.7 nM
Cc1nccnc1C(=O)N1CCC2(CC1)O[C@@H]1CC[C@@H](c3cc(F)cc(F)c3)N1C2=O [Example 6.2, (5′S,7a′R)-5′-(3,5-difluorophenyl)-1-(3-methylpyrazine-2-carbonyl)tetrahydro-3′H-spiro[piperidine-4,2′-pyrrolo[2,1-b] [1,3]oxazol]-3′-one]	493 nM
O=C1N2[C@@H](CC[C@H]2c2ccccc2)OC12CCN(c1cc(-n3cccn3)ncn1)CC2 [Example 4.174, (5′S,7a′R)-5′-phenyl-1-[6-(1H-pyrazol-1-yl)pyrimidin-4-yl]tetrahydro-3′H-spiro[piperidine-4,2′-pyrrolo[2,1-b] [1,3]oxazol]-3′-one]	< 25 nM
O=C1N2[C@@H](CC[C@H]2c2ccccc2)OC12CCN(c1cc(C(F)(F)F)ncn1)CC2 [Example 4.33, (5′S,7a′R)-5′-phenyl-1-[6-(trifluoromethyl)pyrimidin-4-yl]tetrahydro-3′H-spiro[piperidine-4,2′-pyrrolo[2,1-b] [1,3]oxazol]-3′-one]	50 nM

Now from value to molecule:

EC50	Compound
< 25 nM	O=C1N2[C@@H](CC[C@H]2c2ccccc2)OC12CCN(c1ccc(-c3cc4n(n3)CCC4)c3ncnn13)CC2 [Example 21.18, (5′S,7a′R)-1-[8-(5,6-dihydro-4H-pyrrolo[1,2-b]pyrazol-2-yl)[1,2,4]triazolo[1,5-a]pyridin-5-yl]-5′-phenyltetrahydro-3′H-spiro[piperidine-4,2′-pyrrolo[2,1-b][l,3]oxazol]-3′-one]
25.2 nM	O=C1N2[C@@H](CC[C@H]2c2ccccc2)OC12CCN(c1ncc(-c3nccs3)cn1)CC2 [Example 21.12, (5′S,7a′R)-5′-phenyl-1-[5-(1,3-thiazol-2-yl)pyrimidin-2-yl]tetrahydro-3′H-spiro[piperidine-4,2′-pyrrolo[2,1-b][1,3]oxazol]-3′-one]
< 25 nM	O=C1N2[C@@H](CC[C@H]2c2cc(F)cc(F)c2)OC12CCN(c1ncnn3cccc13)CC2 [Example 13.11, (5′S,7a′R)-5′-(3,5-difluorophenyl)-1-(pyrrolo [2,1-f][1,2,4]triazin-4-yl)tetrahydro-3′H-spiro[piperidine-4,2′-pyrrolo[2,1-b]oxazol]-3′-one, TFA salt]
271 nM	COC1(C)CN(C(=O)c2nc(N3CCC4(CC3)O[C@@H]3CC[C@@H](c5cc(F)cc(F)c5)N3C4=O)ncc2F)C1 [Example 7.6, (5′S,7a′R)-5′-(3,5-difluorophenyl)-1-[5-fluoro-4-(3-methoxy-3-methylazetidine-1-carbonyl)pyrimidin-2-yl]tetrahydro-3′H-spiro[piperidine-4,2′-pyrrolo[2,1-b][1,3]oxazol]-3′-one]
< 25 nM	O=C1N2[C@@H](CC[C@H]2c2ccccc2)OC12CCN(c1ncc(-c3ncco3)cn1)CC2 [Example 21.15, (5′S,7a′R)-1-[5-(1,3-oxazol-2-yl)pyrimidin-2-yl]-5′-phenyltetrahydro-3′H-spiro[piperidine-4,2′-pyrrolo[2,1-b][1,3]oxazol]-3′-one]
< 25 nM	CCOc1ccc(N2CCC3(CC2)O[C@@H]2CC[C@@H](c4cc(F)cc(F)c4)N2C3=O)n2nccc12 [Example 19.2, (5′S,7a′R)-5′-(3,5-difluorophenyl)-1-(4-ethoxypyrazolo[1,5-a]pyridin-7-yl)tetrahydro-3′H-spiro[piperidine-4,2′-pyrrolo[2,1-b]oxazol]-3′-one, TFA salt]
< 25 nM	C#Cc1cnc(N2CCC3(CC2)O[C@@H]2CC[C@@H](c4ccccc4)N2C3=O)n2ncnc12 [Example 21.23, (5′S,7a′R)-1-(8-ethynyl[1,2,4]triazolo [1,5-c]pyrimidin-5-yl)-5′-phenyltetrahydro-3′H-spiro[piperidine-4,2′-pyrrolo[2,1-b][1,3]oxazol]-3′-one]
< 25 nM	O=C1N2[C@@H](CC[C@H]2c2ccccc2)OC12CCN(c1cc(-c3cnn(C(F)F)c3)ncn1)CC2 [Example 10.2, (5′S,7a′R)-1-{6-[1-(difluoromethyl)-1H-pyrazol-4-yl]pyrimidin-4-yl}-5′-phenyltetrahydro-3′H-spiro[piperidine-4,2′-pyrrolo[2,1-b][1,3]oxazol]-3′-one]
